Assay results reported in US9821004B2, “Inhibition of a lncRNA for treatment of melanoma” (VIB VZW, priority 2013, dated 2017).

Tests used:
[1] = test system: BRAFV600E human melanoma cell line; test: Apoptosis (Annexin-5-positive cells by FACS) after gapmer transfection plus BRAFV600E-inhibitor; assay type: cell-based; conditions: gapmer 3 transfection; 24 hours after exposure to the BRAFV600E-inhibitor, 48 hours after transfection, FIG. 16
Description: Apoptosis was measured by quantification of Annexin-5-positive cells by FACS 24 hours after exposure to the BRAFV600E-inhibitor (and 48 hours after transfection). Representative pictures of the cells are shown.
Importantly, knock-down of LINC01212 sensitizes BRAFV600E-melanoma cells to a BRAF-inhibitor currently used in the clinic, […] (FIG. 16).

[2] = test system: BRAFV600E-positive melanomas; conditions: patients with BRAFV600E-positive melanomas; cited from earlier work

For CCCS(=O)(=O)Nc1ccc(F)c(C(=O)c2c[nH]c3ncc(-c4ccc(Cl)cc4)cc23)c1F [PLX4032], the “sensitization of BRAFV600E-melanoma cells to BRAF-inhibitor by LINC01212 knock-down (apoptosis)” value [1] is listed as “sensitizes” and the anti-tumor response rate [2] is listed as 80%.
